Usually IC50 stands for the concentration that inhibits the measured activity by half. A low value points to inhibition by little substance.

This note sets out measurements from US20040219158A1, “Compositions and methods for diagnosis and therapy of medical conditions involving infection with pseudomonas bacteria” (priority 2003, published 2004).

For the experiment, the target named is PA-IIL lectin (Pseudomonas aeruginosa, UniProt Q9HYN5). Briefly: Inhibition of binding of HRP-labeled fucosylated polymer (Fuc-PAA-biotin) to immobilized PA-IIL lectin. As to the method: Biotinylated polymers of Fucose (Fuc-PAA-biotin, GlycoTech Corp.) are allowed to couple HRP-labeled streptavidin (KPL labs) overnight at 4° C. PA-IIL lectin is immobilized in plastic microtiter wells and allowed to react with the HRP-labeled fucosylated polymer. Binding is detected by TMB substrate followed by color development with 1 M H3PO4 (FIG. 20). Conditions chosen for the assay are coating with 3 μg/ml PA-IIL and incubation of inhibitor with 2 μg/ml of fucosylated polymer.
Chain of PA-IIL lectin (Q9HYN5 entry or part of it): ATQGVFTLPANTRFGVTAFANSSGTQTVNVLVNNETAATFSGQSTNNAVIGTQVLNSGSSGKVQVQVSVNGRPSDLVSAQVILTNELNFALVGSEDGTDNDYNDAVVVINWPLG

As for `O=C[C@H](O)[C@@H](O)[C@@H](O)[C@H](O)CO` [Galactose], the “inhibition of PA-IIL lectin” value (negative control saccharide, data not shown) is “no inhibition”.
Take `O=C[C@@H](O)[C@@H](O)[C@H](O)[C@H](O)CO` [Mannose]: the IC50 came to 95 µM.
